Read-outs that look alike come from different tables or passages of the source.
How the values were obtained:
männliche NMRI-Mäuse [1] = assay: Tail-flick test (radiant heat) in the mouse; assay type: in vivo, Maus; conditions: for ED50: Mus musculus
Excerpt: (§1) Dazu wurden männliche NMRI-Mäuse mit einem Gewicht von 20 bis 25 g oder weibliche Sprague Dawly-Ratten mit einem Gewicht von 120 bis 160 g verwendet. Die Tiere wurden einzeln in Testkäfige gesetzt und die Schwanzbasis einem fokussierten Wärmestrahl einer elektrischen Lampe (Rhema-Analgesiemeter) ausgesetzt. Die Lampenintensität wurde so eingestellt, daß die Zeit vom Einschalten der Lampe bis zum plötzlichen Wegzucken des Schwanzes (Schmerzlatenz) bei unbehandelten Tieren 3 bis 6 Sekunden betrug. Vor Gabe der erfindungsgemäß zu verwendenden Verbindung wurden die Tiere innerhalb von 5 Minuten zweimal getestet und der Mittelwert dieser Messungen als Vortestmittelwert berechnet. Die Schmerzmessung wurde 20, 40 und 60 Minuten nach intravenöser und 30, 60, 90, 120 Minuten nach oraler Gabe durchgeführt. Bei Anstieg der Schmerzlatenz wurde die maximale Expositionszeit auf 12 Sekunden beschränkt und die Zunahme der Latenzzeit von >150 % des Vortestmittelwerts als analgetische Wirkung gewertet. Zur Bestimmung der Dosisabhängigkeit wurden die Verbindungen in 3 bis 5 logarithmisch ansteigenden Dosen, die jeweils die Schwellen- und die maximale Wirkdosis einschlossen, appliziert und aus der Anzahl der Tiere, die analgetische Wirkung zeigten, nach der Methode von Litchfeld und Wilcoxon (J. Pharm. Ex. Ther. 96, 99 bis 113 (1949)) die ED50-Werte bestimmt. Die ED50-Berechnung erfolgte im Wirkmaximum jeweils 20 Minuten nach intravenöser und jeweils 30 Minuten nach oraler Substanzgabe.
(§2) Die Bestimmung der oralen Wirkverfügbarkeit erfolgte aus dem Verhältnis der ED50-Werte bei i.v.- und p.o.-Gabe. Wirkverfügbarkeit =(ED50 i.v.)/(ED50 p.o.) [formula]

[2] = system: weibliche Sprague Dawly-Ratten; assay: Tail-flick test (radiant heat) in the rat; conditions: for ED50: Rattus norvegicus
Excerpt: as §1, §2

männliche NMRI-Mäuse [3] = assay: Phenylquinone-induced writhing test in the mouse; assay type: in vivo, Maus
Protocol: Die Untersuchung auf analgetische Wirksamkeit wurde im Phenylchinon-induzierten Writhing an der Maus (modifiziert nach I. C. Hendershot, J. Forsaith, J. Pharmacol. Exp. Ther. 125, 237 - 240 (1959)) durchgeführt. Dazu wurden männliche NMRI-Mäuse mit einem Gewicht von 25 bis 30 g verwendet. Gruppen von 10 Tieren pro Substanzdosis erhielten 10 Minuten nach intravenöser Gabe und 30 Minuten nach oraler Gabe der erfindungsgemäß zu verwendenden Verbindungen 0,3 ml/Maus einer 0,02 %-igen wäßrigen Lösung des Phenylchinon (Phenylbenzochinon, Fa. Sigma, Deisenhofen; Herstellung der Lösung unter Zusatz von 5 % Ethanol und Aufbewahrung im Wasserbad bei 45° C) intraperitoneal appliziert. Die Tiere wurden einzeln in Beobachtungskäfige gesetzt und mittels Drucktastenzähler die Anzahl der Schmerz-induzierten Streckbewegungen (sogenannte Writhing-Reaktionen = Durchdrücken des Körpers nach Abstrecken der Hinterextremitäten) 5 bis 20 Minuten nach der Phenylchinongabe ausgezählt. Aus der dosisabhängigen Abnahme der Writhing-Reaktionen im Vergleich zu parallel untersuchten, nur mit Phenylchinon behandelten Kontrollgruppen wurden mittels Regressionsanalyse (Auswerteprogramm Martens, EDV-Serivce, Eckental) der ED50-Wert für die Hemmung der Writhing-Reaktlon berechnet.

[4] = Animal experiments on constipating effect (no method given); assay type: in vivo; conditions: compared with Morphin
[5] = system: weibliche Sprague Dawly-Ratten; conditions: rat, in vivo
Excerpt: as §1, §2

[6] = iv, 20 min, read-out: ED50-Werte Tail-flick, Ratte i.v.
[7] = po, 0.5 h, read-out: ED50-Werte Tail-flick, Ratte p.o.

Row | Compound | ED50 (männliche NMRI-Mäuse [1]; iv, 20 min, read-out: ED50-Werte Tail-flick, Maus i.v.) [mg/kg] | ED50 (männliche NMRI-Mäuse [1]; po, 0.5 h, read-out: ED50-Werte Tail-flick, Maus p.o.) [mg/kg] | orale Wirkverfügbarkeit (männliche NMRI-Mäuse [1]; Tail-flick, mouse, (ED50 i.v.)/(ED50 p.o.)) | besser oral verfügbar als Morphin (männliche NMRI-Mäuse [1]; mouse (tail-flick and writhing taken together), relative to Morphin) [mal] | ED50 [2, 6] [mg/kg] | ED50 [2, 7] [mg/kg] | analgetische Wirkung ([2]; Tail-flick test, rat, result in words) | orale Wirkverfügbarkeit ([2]; Tail-flick, rat, (ED50 i.v.)/(ED50 p.o.)) | besser oral verfügbar als Morphin ([2]; rat, tail-flick, relative to Morphin) [mal] | analgetische Wirkung (männliche NMRI-Mäuse [3]; Writhing test, result in words) | orale Wirkverfügbarkeit (männliche NMRI-Mäuse [3]; Writhing, (ED50 i.v.)/(ED50 p.o.)) | ED50 (männliche NMRI-Mäuse [3]; iv, 10 min, i.v., phenylquinone i.p. 10 min after dosing, read-out: ED50-Werte Writhing, Maus i.v.) [mg/kg] | ED50 (männliche NMRI-Mäuse [3]; po, 0.5 h, p.o., phenylquinone i.p. 30 min after dosing, read-out: ED50-Werte Writhing, Maus p.o.) [mg/kg] | obstipierende Wirkungen [4] | orale Wirkverfügbarkeit [5]
1 | CN(C)C[C@H]1CCCC[C@]1(O)c1cccc(O)c1 [(+)-O-Demethyltramadol] | 1.41 | 3.75 | 0,38 | ~5 | 1.01 | 4.9 | ausgeprägte analgetische Wirkung | 0,21 | ~20 | ausgeprägte analgetische Wirkung | 0,26 | 0.49 | 1.87 | schwächere obstipierende Wirkungen als Morphin | –
2 | CN1CC[C@]23c4c5ccc(O)c4O[C@H]2[C@@H](O)C=C[C@H]3[C@H]1C5 [Morphin, reference compound] | – | – | – | – | 0.93 | 75 | – | – | – | – | – | – | – | – | 0,01

— patent publication EP0870499A1, “Oral use of (+)-0-Demethyltramadol as analgesic” (Grünenthal GmbH, priority 1997, dated 1998)
